Source: patent US7045146B2, “Templating of solid particles by polymer multilayers” (Max-Planck-Gesellschaft zur Forderung der Wissenschaften …, priority 2000, dated 2006)

Key:
Type in all cases: physicochemical
[1] = Release experiments: removal of the microcrystal core by ethanol, fluorescence of supernatant; conditions: control without polyelectrolyte multilayer
Method: Direct proof that a polymer multilayer cage encapsulated the microcrystals was obtained by removing the templated core. The release behaviour of the pyrene and fluoresceine diacetate molecules, from dissolution of the core templates, through the polymer capsule wall can be investigated by using fluorescence spectroscopy. Following centrifugation of the coated microcrystal suspensions that were exposed to ethanol, the supernatant was assessed for either pyrene or fluoresceine at regular time intervals.
12 mL of solvent (ethanol or ethanol/water mixtures) were dispensed into 15 mL tubes. 0.1 mL of the coated microcrystal suspension of Example 3 was then quickly added to each tube and after defined times (2, 5, 10 min etc.) the suspension was centrifuged at 3000 g for 5 min. A portion of the supernatant was removed and tested for the presence of PYR of FDA by fluorescence. For PYR, the fluorescence emission intensity of the supernatant was measured directly by using an excitation wavelength (λex) of 350 nm and monitoring the emission (λem) at 373 nm. FDA was first hydrolyzed into fluorescein either by treatment with esterase or dilute base prior to fluorescence measurement (λex=492 nm, λem=513 nm). As control experiments, the release characteristics of uncoated particles was also studied as outlined above.

[2] = Microelectrophoresis: zeta-potential of coated organic microcrystals
Method: The layer-by-layer assembly of polyelectrolytes onto FDA or PYR microcrystals was carried out as follows: 50 mg of finely milled core particles (FDA or PYR) were first thoroughly mixed with 12 mL of 0.2–0.4 wt % of the dispersing agent (ionic surfactant, lipid or charged polymer). Crystalline fluorescein diacetate or pyrene can be milled to fine particles using e.g. a mortar and pestle. However, also advanced ball milling procedures can be used.
The crystals were suspended by their immediate sonication for 5 min. The suspension was allowed to stand for 30 min, thus allowing the larger crystals to sediment, or gently centrifuged. The turbid white supernatant was then extracted, centrifuged and washed several times, and finally resuspended in water.
The resulting microcrystal particles were then layer-by-layer coated with PSS and PAH.^18 When positively charged surfactants or DPPC were used as the first layer, 1 mL of PSS solution (5 mg mL^−1, containing 0.5 M NaCl) was added first. PAH solution (1 mL of 5 mg mL^−1, containing 0.5 M NaCl) was added first when PSS or SDS were adsorbed onto the microcrystals. After an adsorption time of 15 min for PAH or PSS adsorption, the suspension was centrifuged at 3000 g for 5 min. The supernatant was then removed and three cycles of water washing and redispersing were applied to remove the excess unadsorbed polyelectrolyte in solution. Subsequent polyelectrolyte layers, bearing an opposite charge to that already adsorbed on the particle, were deposited in identical fashion to produce multilayer-coated microcrystals. In some cases, the fluorescently labeled polyelectrolyte, PAH-FITC, was applied (as a 2 mg mL^−1 solution containing 0.5 M NaCl) to form a fluorescent layer on the microcrystal surface.
The microelectrophoretic mobility of coated organic microcrystals was measured with a malvern Zetasizer 4 by taking the average of 5 measurements at the stationary level. The mobilities (μ) were converted to the electrophoretic potentials (ζ) using the Smoluchowski relation ζ=μη/ε, where η and ε are the viscosity and permittivity of the solution, respectively.^25 All measurements were performed on microcrystals re-dispersed in air-equilibrated pure water (pH ˜5.6).

Solubility in water = assay: Solubility in water
[3] = SDS-dispersed crystals, layer No. 2, coating PAH
[4] = SDS-dispersed crystals, layer No. 3, coating PSS
[5] = SDS-dispersed crystals, layer No. 4, coating PAH
[6] = SDS-dispersed crystals, layer No. 5, coating PSS
[7] = SDS-dispersed crystals, layer No. 6, coating PAH-FTTC
[8] = crystals, layer No. 1, coating SDS detergent, pure water pH ~5.6

SMILES	time for removal of core upon addition of ethanol ([1]; DDDAB-dispersed (surfactant-coated) microcrystals)	time for removal of core upon addition of ethanol ([1]; PSS-dispersed (PSS-coated) microcrystals)	Zeta-potential [2, 3]	Zeta-potential [2, 4]	Zeta-potential [2, 5]	Zeta-potential [2, 6]	Zeta-potential [2, 7]	ζ-potential ([2]; crystals exposed to DDDAB (FIG. 2a))	Zeta-potential [2, 8]	solubility in water (Solubility in water)	ζ-potential ([2]; SDS dispersed crystals (FIG. 2a))	ζ-potential ([2]; microcrystals dispersed with DPPC (FIG. 2b))	ζ-potential ([2]; microcrystals exposed to PSS (FIG. 2b))
c1cc2ccc3cccc4ccc(c1)c2c34 [Pyrene]	≤ 30 min	≤ 30 min	+59 mV	−46.5 mV	+54.3 mV	−37.2 mV	+47.3 mV	+50 mV	−68.5 mV				
CC(=O)Oc1ccc2c(c1)Oc1cc(OC(C)=O)ccc1C21OC(=O)c2ccccc21 [Fluorescein diacetate, fluorescein diacetate]			+42.9 mV	−37.7 mV	+51.5 mV	−42.2 mV	+48.2 mV		-85 mV	very low solubility in water	−50 mV	+20 mV	−40 mV
